Measured values taken from patent EP0525814A1, “Use of di-tertbutylhydroxyphenyl derivatives for the therapy of inflammatory conditions of the gastrointestinal tract” (BOEHRINGER MANNHEIM GMBH, priority 1991, dated 1993).

Tested on: Akute Kolitis
Assay: Acetic acid-induced acute colitis in rats, morphological evaluation of the mucosa by image analysis
Format: in vivo, Ratten
Conditions: rat, 3 x 200 mg/kg p.o.; for Anteil von Mukosabereichen Schädigungsstufe 0 (ohne Befund) an der Gesamtfläche des untersuchten Darmbereichs / Anteil von Mukosabereichen Schädigungsstufe 1 (Schwellung des Gewebes mit leichter Rötung) an der Gesamtfläche des untersuchten Darmbereichs / Anteil von Mukosabereichen Schädigungsstufe 2 (starke Rötung des Gewebes mit Einblutungen oder ulcerierenden Nekrosen) an der Gesamtfläche des untersuchten Darmbereichs: rectum and parts of distal colon, 3 days after induction with 5% acetic acid, mean ± spread
[1] = change versus control in words, p<0,01

Description: Beispiel 1 und Probucol wurden in einer Dosierung von 200 mg/kg/d 3 mal oral verabreicht. Die Behandlung wurde einen Tag vor Entzündungsinduktion mit 5% Essigsäure begonnen. […] Das Ausmaß einer entzündlichen Reaktion im Darm wird durch Begutachtung des Mukosa-Zustandes und Klassifizierung nach festgelegten Parametern bestimmt.
Akute Kolitis wurde bei 24 h nüchternen Ratten durch rektale Instillation von 5% Essigsäure (1,5ml/Tier) über eine 8 cm lange Sonde induziert. Die morphologische Auswertung des Mukosazustandes aus dem Rektum und Teilen des distalen Kolons (ca. 8 cm) erfolgte am 3. Tag nach Entzündungsinduktion, nachdem die Tiere getötet worden waren. Beispiel 1 und Probucol wurden in einer Dosierung von 200 mg/kg/d 3 mal p.o. (2,5 ml/kg) verabreicht. Die erste Gabe erfolgte 24 h vor Essigsäure-Applikation. Kontrolltieren wurde das Substanzlösungsmittel (20% DMSO in Öl) verabreicht.
Die morphologische Auswertung erfolgte an einem computergeschützten Bildanalyse-System. Es wurde der Anteil von entzündetem Gewebe an der Gesamtdarmoberfläche bestimmt. Folgende Schädigungsstufen wurden unterschieden: • - Stufe 0 : ohne Befund • - Stufe 1 : Schwellung des Gewebes mit leichter Rötung • - Stufe 2 : starke Rötung des Gewebes mit Einblutungen oder ulcerierenden Nekrosen

SMILES	Anteil von Mukosabereichen Schädigungsstufe 0 (ohne Befund) an der Gesamtfläche des untersuchten Darmbereichs	Anteil von Mukosabereichen Schädigungsstufe 1 (Schwellung des Gewebes mit leichter Rötung) an der Gesamtfläche des untersuchten Darmbereichs	Anteil von Mukosabereichen Schädigungsstufe 2 (starke Rötung des Gewebes mit Einblutungen oder ulcerierenden Nekrosen) an der Gesamtfläche des untersuchten Darmbereichs	Einfluß auf die durch Essigsäure-Applikation hervorgerufenen Mukosaschädigungen (result in words)	nur noch geschwollene Gewebebereiche (Schädigungsstufe 1) [1]	stark geschädigte Darmanteile (Schädigungsstufe 2) [1]	größere, morphologisch normale Gewebebereiche (Schädigungsstufe 0) (result in words, p<0,01 versus control)
CC(C)(Sc1cc(C(C)(C)C)c(O)c(C(C)(C)C)c1)Sc1cc(C(C)(C)C)c(O)c(C(C)(C)C)c1 [Probucol, reference compound]	0,12 ± 0,09%	52,78 ± 9,36%	47,19 ± 9,36%	keinen Einfluß			
CC(C)(C)c1cc(CCNC(=O)CCc2cc(C(C)(C)C)c(O)c(C(C)(C)C)c2)cc(C(C)(C)C)c1O [Beispiel 1]	17,20 ± 8,93 %	66,96 ± 8,31 %	15,75 ± 6,24 %		Zunahme	deutlicher Abnahme	nachweisbar
